For one data set, the system named is CD4 and P56^Lck. Kind of data set: CD4 immunoprecipitation probed with anti-p56Lck. Format: cell-based. The settings on record: viable murine splenic enriched CD4+ T cells, 2 hours, 400 µM. On the procedure:
Cells, harvested after 2 hours of culture with or without MnTBAP, are resuspended in solubilization buffer containing 1% NP-40 (Sigma-Aldrich), 0.1 M (NH4)2SO4, 20 mM Tris (pH 7.5), 10% glycerol, 25 mM NaF (Sigma-Aldrich), 1 mM Na3VO4 (Thermo Fisher Scientific, Villebon-sur-Yvette, France) and 1x protease inhibitor mixture (Roche, Basel, Switzerland). After 30 minutes of incubation under gentle agitation, cell lysates are centrifuged at 14,000 x g for 30 minutes. Lysates are frozen in aliquots at -20°C or used immediately. Immunoprecipitation is performed by incubation overnight of lysates with rat anti-mouse CD4 (GK 1.5, Biolegend, San Diego, CA, USA) under gentle agitation at 4°C. The antigen-antibody complex is then added to Protein A/G resin slurry (Pierce, Thermo Fisher scientific), and incubated with gentle mixing for 2 hours at room temperature, and finally microcentrifuged for 30 seconds. The pellet is washed five times with solubilization buffer, and the immunoprecipitated material is eluted by incubating the complex for 2-5 minutes at 95-100°C in Laemmli sample buffer prepared without β-ME. […] Infrared fluorescence of the secondary antibodies was read on an Odyssey Imaging System, and quantification of bands was performed using the ImageStudio Lite software (LI-COR Biosciences).

Data set [1] relates to splenic enriched CD4^+ T cells. The data set can be described thus: Cell viability by Fixable Viability Dye eFluor 780, flow cytometry. The settings on record: 400 µM, 2 hours. Type of data set: cell-based, murine. On the procedure:
After mechanic disruption of the spleen, erythrocytes are eliminated by hypotonic shock with ammonium chloride potassium (ACK) lysing buffer. Then CD4^+ T cells are isolated from spleen cell suspension by negative selection using a CD4^+ T cell isolation kit (Miltenyi Biotec, Paris, France) followed by auto-MACS (Miltenyi Biotec) magnetic sorting, according to the manufacturer's instructions. Purity of isolated CD4^+ T cells is usually > 95%. Cell suspensions are first incubated with anti-FcγRIII/II (Fc Block, 2.4G2, BD Biosciences, Le Pont de Claix, France) monoclonal antibodies (mAb) for 10 minutes at 4°C and then stained for 30 minutes at 4°C in PBS, 0.1% bovine serum albumin (BSA) with Fc Block present, using saturating amounts of rat anti-mouse CD4-Pacific Blue (RM4-5, BD Biosciences) mAb. Gates for CD4^+ populations are set according to isotype controls. Cell viability is determined by staining with 7-aminoactinomycin D (7-AAD; Sigma-Aldrich, St-Quentin-Fallavier, France) or Fixable Viability Dye eFluor 780 (eBiosciences, Paris, France). When indicated, samples are fixed with 1% paraformaldehyde. Samples are acquired on an LSR II flow cytometer (BD Biosciences) and data were analyzed with DIVA software (BD Biosciences).

A further data set relates to rAAV1 CMV mSeap vector. The data set can be described thus: rAAV readministration in TA: mSeap expression and vector copy number. Type of data set: in vivo, C57BL/6 mice. On the procedure:
MnTBAP (Calbiochem, San Diego, USA or Enzo Life Sciences, Farmingdale, USA) is dissolved in 75 mM NaOH to constitute a 20 mM stock solution. MnTBAP is dissolved in the complete medium, used for in vitro treatment, containing RPMI-1640 supplemented with 10% heat-inactivated fetal calf serum, 100 U/ml penicillin/streptomycin, 2 mM glutamax and 50 µM β-mercaptoethanol β-ME). Hypertonic medium, used to block clathrin dependent endocytosis, is complete medium supplemented with 0.45 M sucrose. For in vivo treatment, the stock solution is diluted with PBS and administered at 80 mg/kg intraperitoneally daily during five days. Control animals are injected with equivalent volume of PBS.
Readministration protocol: After the initial IV injection of rAAV2/1 CMV SGCA HY vector at D0 (two hours post first IP injection of MnTBAP) the second rAAV1 injection (2.10^9 vg of rAAV2/1 CMV mSeAP) is performed 28 days later in the left TA muscle. Mice are followed up to 93 days after readministration to analyze capsid-specific humoral response and to measure circulating mSeAP from serum samples. Mice are killed 93 days after second injection of vector. […]
Genomic DNA is extracted from frozen muscles using MagNA Pure 96 Instrument (Roche). […] Results are calculated from a standard curve based on dilutions of 2 plasmids containing either the Titin or CMV sequences. […]
Determination of alkaline phosphatase concentration in immunized mice sera is performed by chemoluminescence analyzis (C. Riviere et al., Gene therapy 13, 1300. 2006). Blood samples are centrifuged for 10 min at 8000 rpm to collect sera, endogenous alkaline phosphatase is heat inactivated for 5 min at 65°C and the heat-resistant mSeAP is measured by addition of the reaction buffer and CSPD® chemiluminescent substrate, according to the manufacturer's instructions (Tropix, Applied Biosystems, Forster City, USA). Chemiluminescence is quantified using a luminometer, Enspire (Perkin Elmer, Massachusetts, USA). Expression levels are expressed as ng of mSeAP per ml of serum using a standard curve of purified human placental alkaline phosphatase.

As to `O=C(O)c1ccc(-c2c3nc(c(-c4ccc(C(=O)O)cc4)c4ccc([n-]4)c(-c4ccc(C(=O)O)cc4)c4nc(c(-c5ccc(C(=O)O)cc5)c5ccc2[n-]5)C=C4)C=C3)cc1.[Mn+3]` [MnTBAP, manganese [III] tetrakis (4-benzoic acid) porphyrin], in the data set on CD4 and P56^Lck, the “link between CD4 and P56^Lck” value is “disruption of CD4 and P56^Lck is observed”. Also, the “cell death (eFluor 780+ dead cells)” value in data set [1] is “doesn't result in more eFluor 780+ dead cells”. The “level of mSeap in the serum” value with rAAV1 CMV mSeap vector (93 days after vector readministration, vs control mice) is “significantly increased”. Besides, in the data set on rAAV1 CMV mSeap vector (injected TA harvested 93 days after vector readministration), the “histochemical detection of mSeap in muscle” value is listed as “detection of the reporter gene mSeap”. Further, the “normalized copy number of the readministered rAAV” value with rAAV1 CMV mSeap vector (injected TA, CMV PCR normalized to titin, vs control mice) is listed as “significantly increased”.
